Assay [1] relates to NC/Nga mice. The assay can be described thus: Prophylactic study in DNCB-induced atopic dermatitis NC/Nga mice (treatment days 1-14). In kind it is in vivo, mouse. The settings on record: skin sections day 15. From the text: (§1) Atopic dermatitis (AD) was induced in specific pathogen-free (SPF) female NC/Nga mice (n=8/group), 8-12 weeks old, by repeated percutaneous applications of dinitrochlorobenzene (DNCB) to the dorsal skin of the ears and back on days 4, 7, 10, and 13. NC/Nga mice are an established mouse model for atopic dermatitis. See Suto et al. NC/Nga mice: a mouse model for atopic dermatitis; Int Arch Allergy Immunol. 1999; 120 Suppl 1:70-5; and Gao et al., Establishment of allergic dermatitis in NC/Nga mice as a model for severe atopic dermatitis, Biol. Pharm. Bull. 2004 September; 27(9): 1376-81.
(§2) A prophylactic study and a therapeutic study was conducted: • 1. Prophylactic study: 0.2% formulation (C1), 0.5% formulation (C2), RVT-501 placebo, tacrolimus placebo, 0.1% tacrolimus, or no treatment (AD control) on days 1-14 or sham-induction of AD. • 2. Therapeutic study: 0.2% formulation (C1), 0.5% formulation (C2), active ingredient placebo, tacrolimus placebo, 0.1% tacrolimus, or no treatment (AD control) on days 8-14.
(§3) Scratching assays were performed on days 2, 8, 11, 14 in both studies. Skin samples were harvested for histopathology and cytokine analysis on day 15. Histopathology of sham-induced versus DNCB-induced mouse skin indicates clear presence of atopic dermatitis.

Assay [2] has as its system NC/Nga mice. In words: Therapeutic study in DNCB-induced atopic dermatitis NC/Nga mice (treatment days 8-14). In kind it is in vivo, mouse.
Text: as §1, §2, §3

As to `C=CC[C@@H]1/C=C(\C)C[C@H](C)C[C@H](OC)[C@H]2O[C@@](O)(C(=O)C(=O)N3CCCC[C@H]3C(=O)O[C@H](/C(C)=C/[C@@H]3CC[C@@H](O)[C@H](OC)C3)[C@H](C)[C@@H](O)CC1=O)[C@H](C)C[C@@H]2OC` [0.1% tacrolimus, tacrolimus], in assay [1], the “AD lesions induced by DNCB at the microscopic level” value is “attenuated AD lesions”. Further, in assay [2] (day 14), the scratching result is reported as “significant decrease in scratching”. In addition, the “IL-1α, IL-1β, IL-4, IL-5, IL-10, IL-12(p40), IL-13, eotaxin, GM-CSF, KC, MCP-1, MIP-1α, MIP-1β, RANTES, and TNF-α in skin” value in assay [2] (day 15) was “significantly decreased”. Besides, the AD lesion severity entry in assay [2] (skin sections day 15) is “trended toward a reduction”.

These data come from patent US20210093637A1, “TOPICAL OINTMENT FORMULATIONS OF PDE-4 INHIBITOR AND THEIR USE IN TREATING SKIN CONDITIONS” (Dermavant Sciences GmbH, priority 2017, published 2021).
